Data as given in US10517946B2, “Polyelectrolyte multilayers assembled from immune signal compounds” (University of Maryland, College Park, priority 2015, dated 2019).

What was measured:
[1] = target: T1, TLR3 (Mus musculus, UniProt Q99MB1); assay: TLR3 signaling in HEK-Blue mTLR3 cells (AuNP iPEMs); format: cell-based; settings: 16 hours, absorbance 625 nm
T1 construct: host or cells: HEK-Blue mTLR3 (HEK293-derived reporter cells)
T1 sequence (Q99MB1 26-905): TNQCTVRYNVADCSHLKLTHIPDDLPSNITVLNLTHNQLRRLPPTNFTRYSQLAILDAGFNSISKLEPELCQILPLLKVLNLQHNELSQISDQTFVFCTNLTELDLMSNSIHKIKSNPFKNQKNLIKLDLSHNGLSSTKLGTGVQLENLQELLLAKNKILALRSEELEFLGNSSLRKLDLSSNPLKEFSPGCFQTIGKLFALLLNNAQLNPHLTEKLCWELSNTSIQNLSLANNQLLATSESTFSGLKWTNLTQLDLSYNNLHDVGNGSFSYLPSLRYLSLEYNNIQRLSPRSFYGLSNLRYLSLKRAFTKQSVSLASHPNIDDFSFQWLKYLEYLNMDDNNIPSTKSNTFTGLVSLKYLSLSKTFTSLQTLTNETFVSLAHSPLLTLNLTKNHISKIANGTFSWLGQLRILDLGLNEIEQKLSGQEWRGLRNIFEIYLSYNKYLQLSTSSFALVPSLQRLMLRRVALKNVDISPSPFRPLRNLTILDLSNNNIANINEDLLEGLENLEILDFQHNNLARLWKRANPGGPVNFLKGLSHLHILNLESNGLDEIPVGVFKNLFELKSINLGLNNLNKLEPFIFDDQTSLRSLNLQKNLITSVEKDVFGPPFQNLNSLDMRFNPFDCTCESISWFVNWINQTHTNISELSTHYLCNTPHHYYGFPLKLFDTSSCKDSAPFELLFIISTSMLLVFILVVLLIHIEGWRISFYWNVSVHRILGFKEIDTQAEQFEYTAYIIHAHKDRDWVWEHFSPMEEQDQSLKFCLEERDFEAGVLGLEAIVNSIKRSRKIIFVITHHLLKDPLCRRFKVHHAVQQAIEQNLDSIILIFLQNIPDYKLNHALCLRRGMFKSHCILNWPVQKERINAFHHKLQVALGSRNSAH
Description: TLR3 signaling: TLR3 activity was assessed using HEK-Blue mTLR3 cells (Invivogen). Cells were seeded at a concentration of 5.0×10^4 cells per well, followed by treatment with Pam3CSK4 (0.2 μg/mL), LPS (1.0 μg/mL), polyIC (10 μg/mL), C-ODN (5 μg/mL), SIIN peptide (5 μg/mL), AuNPs (1.9×10^−2 mg/well), AuNP-(C-ODN/SIIN*)2 (80 μg/mL), or AuNP-(polyIC/SIIN*)2 (80 μg/mL). After 16 hours the absorbance was read at 625 nm using a UV/Vis platereader (Molecular Devices).

[2] = system: primary DCs; format: cell-based, mouse
Description: Cell internalization studies: Association and uptake of coated AuNPs by DCs was characterized by flow cytometry (FACS CantoII, BD Bioscience) and confocal microscopy (Leica SP5X). For flow cytometry, CD11c^+ splenic DCs were seeded in 96 well plates at a concentration of 1.0×10^5 cells per well. Uncoated AuNPs or AuNPs-(polyIC-Cy5/SIIN*-FITC)2 were then added to each well in a volume of 25 μL. Two-fold serial dilutions were performed using a starting iPEM/AuNPs concentration of 1.9 mg/mL. Cells were then cultured for 16 h. After incubation, cells were washed twice by centrifugation and re-suspended in FACS buffer (PBS+1% BSA). The washed cells were finally resuspended in a DAPI solution (0.1% in PBS+1% BSA) to allow assessment of viability by flow cytometry (i.e., DAPI^− cells). Cells positive for FITC and Cy5 signals compared with negative controls were considered to have associated with iPEMs.

[3] = system: splenic CD11c+ DCs from B6 mice; assay: Presentation of SIINFEKL via MHC-I by DCs; format: cell-based, mouse; settings: anti-SIIN/MHC-I antibody
Description: DC activation and antigen presentation: […] After incubation with iPEM-coated AuNPs, DCs were washed twice with PBS+1% BSA, then blocked in anti-CD16/CD32 (Fcγ III/II receptor) (25× dilution, BD Biosciences) for 15 min at room temperature. The cells were then stained with antibodies for CD80 (FITC), CD86 (AmCyan-A), and CD40 (PE). To quantify presentation of SIINFEKL (SEQ ID NO:15) via the MHC-I pathway, cells were stained with a PE-Cy7 labeled antibody (BioLegend) against anti-mouse H-2Kb bound to OVA257-264 (SIINFEKL (SEQ ID NO:15)). All antibodies were fluorescent conjugates and were used by staining for 20 min at a 1:300 dilution in PBS+1% BSA. Cells were then washed twice in PBS+1% BSA and resuspended in a DAPI solution for analysis by flow cytometry. The data analysis was performed with Flowjo (Treestar).

[4] = system: OT-I CD8+ T cells; assay: DC / OT-I CD8+ T cell co-culture, CFSE proliferation; format: cell-based, mouse; settings: T cells co-cultured with treated DCs
Description: (§1) T cell co-culture, activation, and proliferation: […] Untreated cells were used as a negative control. After 48 h, T cells isolated from OT-I mice were stained with CellTrace™ CFSE cell proliferation reagent (5 μg/mL in cell culture medium) by incubation at room temperature for 5 min. T cells were then co-cultured with each DC sample by addition of 3.0×10^5 T cells per well. After an additional 48 h of incubation, cells were centrifuged (800 rcf for 5 min), the supernatants were collected for ELISA, and the cells were washed in PBS+1% FBS. Cells were then blocked as above and stained with anti-CD8a (APC) for 15 min at room temperature. Lastly, cells were washed twice and re-suspended in DAPI. T cell proliferation was determined by the mean fluorescence intensity (MFI) of CFSE signal among DAPI^−, CD8^+ cells compared with positive and negative controls.

[5] = system: DC/OT-I T cell co-cultures; assay: ELISA of cytokines in DC/T cell co-culture supernatants; format: cell-based, mouse; settings: co-culture supernatant, SIIN-treated samples
Description: as §1, with “controls. ELISA: Cytokine levels in the supernatants collected from DCs/T cell co-cultures were analyzed by ELISA using mouse TNF, IFN-γ, and IL-1β ELISA reagents (BD Bioscience) according to the manufacturer's instructions. 10 μL of each supernatant was used in each test, and cytokine concentrations were quantified by comparison to standard curves prepared from known standards.” for “controls.”

Row | Substance | TLR3 signaling [1] | viability of DCs relative to cells treated with LPS [2] [%] | DCs presenting SIIN via MHC-I [3] | OT-I T cell proliferation (CFSE dilution) [4] | cytokine secretion [5]
1 | Pam3CSK4 | lack of signal |  |  |  | 
2 | Polyinosinic-polycytidylic acid [polyIC] |  | 92.8 | baseline levels |  | 
3 | lipopolysaccharide [LPS] | lack of signal |  | baseline levels |  | 
4 | SIINFEKL (Ovalbumin peptide model antigen) [SIIN peptide] |  |  |  | proliferation of OT-I T cells | lack of cytokine secretion
